{"source": "the NIST ThermoML archive (doi:10.1016/j.tca.2009.02.022)", "key": {"[1]": {"conditions": "303.15 K, 101.33 kPa, Liquid; for viscosity: Capillary tube (Ostwald / Ubbelohde) method; for mass density: Vibrating tube method"}, "[2]": {"assay": "xn = mol fraction of the nth substance listed", "conditions": "303.15 K, 101 kPa, Liquid; for viscosity: Capillary tube (Ostwald / Ubbelohde) method; for mass density: Vibrating tube method"}}, "note": "Numbers after ± are expanded uncertainties."}
{"smiles": "CCCCO", "note": "[butan-1-ol]", "values": [{"measurement": "viscosity", "setting": "[1]", "value": "2.25 ± 0.015", "unit": "mPa·s"}, {"measurement": "mass density", "setting": "[1]", "value": "801.9 ± 0.17", "unit": "kg/m3"}]}
{"smiles": "C1CCCCC1", "note": "[cyclohexane]", "values": [{"measurement": "viscosity", "setting": "[1]", "value": "0.821 ± 0.006", "unit": "mPa·s"}, {"measurement": "mass density", "setting": "[1]", "value": "769.12 ± 0.13", "unit": "kg/m3"}]}
{"smiles": "CCOC(C)=O", "note": "[ethyl acetate]", "values": [{"measurement": "viscosity", "setting": "[1]", "value": "0.4 ± 0.005", "unit": "mPa·s"}, {"measurement": "mass density", "setting": "[1]", "value": "888.5 ± 0.08", "unit": "kg/m3"}]}
{"smiles": "CCOC(C)=O", "note": "[ethyl acetate] + CCCCO", "values": [{"measurement": "viscosity", "setting": "[2]; x2 = 0.1411", "value": "0.467 ± 0.005", "unit": "mPa·s"}, {"measurement": "viscosity", "setting": "[2]; x2 = 0.3184", "value": "0.563 ± 0.005", "unit": "mPa·s"}, {"measurement": "viscosity", "setting": "[2]; x2 = 0.3797", "value": "0.609 ± 0.006", "unit": "mPa·s"}, {"measurement": "viscosity", "setting": "[2]; x2 = 0.4659", "value": "0.673 ± 0.006", "unit": "mPa·s"}, {"measurement": "viscosity", "setting": "[2]; x2 = 0.5634", "value": "0.766 ± 0.006", "unit": "mPa·s"}, {"measurement": "viscosity", "setting": "[2]; x2 = 0.6782", "value": "0.92 ± 0.007", "unit": "mPa·s"}, {"measurement": "viscosity", "setting": "[2]; x2 = 0.7595", "value": "1.076 ± 0.008", "unit": "mPa·s"}, {"measurement": "viscosity", "setting": "[2]; x2 = 0.8312", "value": "1.287 ± 0.009", "unit": "mPa·s"}, {"measurement": "viscosity", "setting": "[2]; x2 = 0.9291", "value": "1.736 ± 0.012", "unit": "mPa·s"}, {"measurement": "mass density", "setting": "[2]; x2 = 0.1411", "value": "875.69 ± 0.14", "unit": "kg/m3"}, {"measurement": "mass density", "setting": "[2]; x2 = 0.3184", "value": "859.95 ± 0.13", "unit": "kg/m3"}, {"measurement": "mass density", "setting": "[2]; x2 = 0.3797", "value": "854.67 ± 0.12", "unit": "kg/m3"}, {"measurement": "mass density", "setting": "[2]; x2 = 0.4659", "value": "847.1 ± 0.12", "unit": "kg/m3"}, {"measurement": "mass density", "setting": "[2]; x2 = 0.5634", "value": "838.65 ± 0.12", "unit": "kg/m3"}, {"measurement": "mass density", "setting": "[2]; x2 = 0.6782", "value": "828.8 ± 0.11", "unit": "kg/m3"}, {"measurement": "mass density", "setting": "[2]; x2 = 0.7595", "value": "821.86 ± 0.11", "unit": "kg/m3"}, {"measurement": "mass density", "setting": "[2]; x2 = 0.8312", "value": "815.82 ± 0.11", "unit": "kg/m3"}, {"measurement": "mass density", "setting": "[2]; x2 = 0.9291", "value": "807.64 ± 0.11", "unit": "kg/m3"}]}
{"smiles": "CCCCCCCCO", "note": "[octan-1-ol]", "values": [{"measurement": "viscosity", "setting": "[1]", "value": "6.19 ± 0.039", "unit": "mPa·s"}, {"measurement": "mass density", "setting": "[1]", "value": "817.52 ± 0.17", "unit": "kg/m3"}]}
{"smiles": "CCCCCCCCO", "note": "[octan-1-ol] + C1CCCCC1", "values": [{"measurement": "viscosity", "setting": "[2]; x1 = 0.2008", "value": "1.242 ± 0.008", "unit": "mPa·s"}, {"measurement": "viscosity", "setting": "[2]; x1 = 0.3755", "value": "1.792 ± 0.011", "unit": "mPa·s"}, {"measurement": "viscosity", "setting": "[2]; x1 = 0.5205", "value": "2.4 ± 0.015", "unit": "mPa·s"}, {"measurement": "viscosity", "setting": "[2]; x1 = 0.6054", "value": "2.847 ± 0.017", "unit": "mPa·s"}, {"measurement": "viscosity", "setting": "[2]; x1 = 0.7044", "value": "3.46 ± 0.021", "unit": "mPa·s"}, {"measurement": "viscosity", "setting": "[2]; x1 = 0.7758", "value": "3.983 ± 0.025", "unit": "mPa·s"}, {"measurement": "viscosity", "setting": "[2]; x1 = 0.8541", "value": "4.633 ± 0.029", "unit": "mPa·s"}, {"measurement": "viscosity", "setting": "[2]; x1 = 0.901", "value": "5.089 ± 0.032", "unit": "mPa·s"}, {"measurement": "viscosity", "setting": "[2]; x1 = 0.9553", "value": "5.664 ± 0.036", "unit": "mPa·s"}, {"measurement": "mass density", "setting": "[2]; x1 = 0.2008", "value": "780.75 ± 0.12", "unit": "kg/m3"}, {"measurement": "mass density", "setting": "[2]; x1 = 0.3755", "value": "789.9 ± 0.13", "unit": "kg/m3"}, {"measurement": "mass density", "setting": "[2]; x1 = 0.5205", "value": "796.98 ± 0.13", "unit": "kg/m3"}, {"measurement": "mass density", "setting": "[2]; x1 = 0.6054", "value": "800.89 ± 0.14", "unit": "kg/m3"}, {"measurement": "mass density", "setting": "[2]; x1 = 0.7044", "value": "805.34 ± 0.14", "unit": "kg/m3"}, {"measurement": "mass density", "setting": "[2]; x1 = 0.7758", "value": "808.38 ± 0.15", "unit": "kg/m3"}, {"measurement": "mass density", "setting": "[2]; x1 = 0.8541", "value": "811.63 ± 0.15", "unit": "kg/m3"}, {"measurement": "mass density", "setting": "[2]; x1 = 0.901", "value": "813.56 ± 0.16", "unit": "kg/m3"}, {"measurement": "mass density", "setting": "[2]; x1 = 0.9553", "value": "815.75 ± 0.16", "unit": "kg/m3"}]}
{"smiles": "CCCCCCCCO", "note": "[octan-1-ol] + CCOC(C)=O", "values": [{"measurement": "viscosity", "setting": "[2]; x1 = 0.0809", "value": "0.537 ± 0.005", "unit": "mPa·s"}, {"measurement": "viscosity", "setting": "[2]; x1 = 0.162", "value": "0.68 ± 0.006", "unit": "mPa·s"}, {"measurement": "viscosity", "setting": "[2]; x1 = 0.3257", "value": "1.028 ± 0.007", "unit": "mPa·s"}, {"measurement": "viscosity", "setting": "[2]; x1 = 0.4413", "value": "1.314 ± 0.009", "unit": "mPa·s"}, {"measurement": "viscosity", "setting": "[2]; x1 = 0.5431", "value": "1.596 ± 0.01", "unit": "mPa·s"}, {"measurement": "viscosity", "setting": "[2]; x1 = 0.6637", "value": "2.04 ± 0.013", "unit": "mPa·s"}, {"measurement": "viscosity", "setting": "[2]; x1 = 0.7062", "value": "2.26 ± 0.014", "unit": "mPa·s"}, {"measurement": "viscosity", "setting": "[2]; x1 = 0.8574", "value": "3.545 ± 0.023", "unit": "mPa·s"}, {"measurement": "viscosity", "setting": "[2]; x1 = 0.9251", "value": "4.563 ± 0.029", "unit": "mPa·s"}, {"measurement": "mass density", "setting": "[2]; x1 = 0.0809", "value": "878.16 ± 0.15", "unit": "kg/m3"}, {"measurement": "mass density", "setting": "[2]; x1 = 0.162", "value": "869.16 ± 0.14", "unit": "kg/m3"}, {"measurement": "mass density", "setting": "[2]; x1 = 0.3257", "value": "854.09 ± 0.13", "unit": "kg/m3"}, {"measurement": "mass density", "setting": "[2]; x1 = 0.4413", "value": "845.4 ± 0.12", "unit": "kg/m3"}, {"measurement": "mass density", "setting": "[2]; x1 = 0.5431", "value": "838.72 ± 0.12", "unit": "kg/m3"}, {"measurement": "mass density", "setting": "[2]; x1 = 0.6637", "value": "831.83 ± 0.11", "unit": "kg/m3"}, {"measurement": "mass density", "setting": "[2]; x1 = 0.7062", "value": "829.6 ± 0.11", "unit": "kg/m3"}, {"measurement": "mass density", "setting": "[2]; x1 = 0.8574", "value": "822.7 ± 0.11", "unit": "kg/m3"}, {"measurement": "mass density", "setting": "[2]; x1 = 0.9251", "value": "820.07 ± 0.11", "unit": "kg/m3"}]}
{"smiles": "CCCCCO", "note": "[pentan-1-ol]", "values": [{"measurement": "viscosity", "setting": "[1]", "value": "2.839 ± 0.019", "unit": "mPa·s"}, {"measurement": "mass density", "setting": "[1]", "value": "807.11 ± 0.17", "unit": "kg/m3"}]}
{"smiles": "CCCCCO", "note": "[pentan-1-ol] + CCOC(C)=O", "values": [{"measurement": "viscosity", "setting": "[2]; x1 = 0.1095", "value": "0.474 ± 0.005", "unit": "mPa·s"}, {"measurement": "viscosity", "setting": "[2]; x1 = 0.2164", "value": "0.541 ± 0.005", "unit": "mPa·s"}, {"measurement": "viscosity", "setting": "[2]; x1 = 0.3291", "value": "0.626 ± 0.006", "unit": "mPa·s"}, {"measurement": "viscosity", "setting": "[2]; x1 = 0.4303", "value": "0.722 ± 0.006", "unit": "mPa·s"}, {"measurement": "viscosity", "setting": "[2]; x1 = 0.5202", "value": "0.829 ± 0.007", "unit": "mPa·s"}, {"measurement": "viscosity", "setting": "[2]; x1 = 0.6103", "value": "0.97 ± 0.007", "unit": "mPa·s"}, {"measurement": "viscosity", "setting": "[2]; x1 = 0.7187", "value": "1.211 ± 0.008", "unit": "mPa·s"}, {"measurement": "viscosity", "setting": "[2]; x1 = 0.8051", "value": "1.508 ± 0.01", "unit": "mPa·s"}, {"measurement": "viscosity", "setting": "[2]; x1 = 0.9009", "value": "2.017 ± 0.013", "unit": "mPa·s"}, {"measurement": "mass density", "setting": "[2]; x1 = 0.1095", "value": "877.42 ± 0.14", "unit": "kg/m3"}, {"measurement": "mass density", "setting": "[2]; x1 = 0.2164", "value": "867.46 ± 0.13", "unit": "kg/m3"}, {"measurement": "mass density", "setting": "[2]; x1 = 0.3291", "value": "857.43 ± 0.13", "unit": "kg/m3"}, {"measurement": "mass density", "setting": "[2]; x1 = 0.4303", "value": "848.83 ± 0.12", "unit": "kg/m3"}, {"measurement": "mass density", "setting": "[2]; x1 = 0.5202", "value": "841.5 ± 0.12", "unit": "kg/m3"}, {"measurement": "mass density", "setting": "[2]; x1 = 0.6103", "value": "834.44 ± 0.11", "unit": "kg/m3"}, {"measurement": "mass density", "setting": "[2]; x1 = 0.7187", "value": "826.3 ± 0.11", "unit": "kg/m3"}, {"measurement": "mass density", "setting": "[2]; x1 = 0.8051", "value": "820.09 ± 0.11", "unit": "kg/m3"}, {"measurement": "mass density", "setting": "[2]; x1 = 0.9009", "value": "813.46 ± 0.11", "unit": "kg/m3"}]}
